Assay results from patent EP0679399B1, “Phosphate diesters for treatment of epidermis proliferative diseases” (Senju Pharmaceutical Co., Ltd., priority 1994, dated 1995).

Tests used:
[1] = Acute toxicity (LD50) in rats; conditions: rat, in vivo
Description: The present compounds are very safe with extremely low toxic potential and can, therefore, be used with advantage for the purposes of this invention. For example, the LD50 of L-ascorbyl DL-α-tocopheryl phosphate potassium (abbreviation: EPC-K): is ≥ 5 g/kg p.o. (rats) and ≥ 100 mg/kg i.v. (rats).

[2] = system: mouse model of psoriasis vulgaris; assay: Mouse model of psoriasis vulgaris induced by TPA (ear epidermal weight gain, ear swelling rate); type: in vivo, ddY mice; conditions: for inhibited the epidermal weight gain: relative to control; for Epidermal weight % gain: right vs left auricle, 72 hours after TPA, mean±SD (n=6-9)
Description: The efficacy of EPC-K was assayed in the mouse model of psoriasis vulgaris using 12-o-tetradecanoylphorbol-13-acetate (briefly TPA).
Male 6-week-old ddY mice purchased from SLC Japan were used.
The entire external surface of the right auricle of each mouse was coated with 20 nmol/40 µl of TPA/methanol, and after 6, 24, 48 and 72 hours, the thickness of the auricle was measured with a dial thickness gauge. The ear swelling rate (%) was then calculated. At 72 hours after application of TPA, the mouse was sacrificed and the right and left auricles were respectively punched out with a 8 mm (dia.) punch. The epidermis of each auricle was peeled off and the epidermal weight was determined. Then, the % gain in epidermal weight of the right auricle relative to the left auricle was calculated.
Each test substance was extemporaneously blended with TPA-methanol and 40 µl of the mixture was applied to the external surface of the right auricle of each mouse. Then, a methanolic solution of the corresponding test substance, 40 µl, was applied once daily for 2 days.
Dunnet's test was used for statistical efficacy evaluation of the test substance.

| Structure (SMILES) | LD50 ([1]; iv) [mg/kg] | LD50 ([1]; po) [mg/kg] | inhibited the epidermal weight gain ([2]; 500 µg/auricle) [%] | Epidermal weight % gain ([2]; 500 µg/auricle) [%] | ear swelling rate ([2]; 1000 µg/auricle, compared with 25 µg betamethasone valerate (Fig. 1)) | inhibited the epidermal weight gain ([2]; 1000 µg/auricle) [%] | Epidermal weight % gain ([2]; 1000 µg/auricle) [%] | ear swelling rate ([2]; 500 and 1000 µg/auricle, 6, 24, 48 and 72 hours after TPA (Fig. 1)) | body weight (side effect) ([2]; 25 µg/auricle) | ear swelling rate ([2]; 25 µg/auricle, 6, 24, 48 and 72 hours after TPA (Fig. 1)) | inhibited the epidermal weight gain ([2]; 25 µg/auricle) [%] | Epidermal weight % gain ([2]; 25 µg/auricle) [%] |
| --- | --- | --- | --- | --- | --- | --- | --- | --- | --- | --- | --- | --- |
| Cc1c(C)c2c(c(C)c1OP(=O)(O)OC1=C(O)[C@@H]([C@@H](O)CO)OC1=O)CCC(C)(CCCC(C)CCCC(C)CCCC(C)C)O2 (mixture of isomers) [EPC-K, L-ascorbyl DL-α-tocopheryl phosphate potassium] | ≥ 100 | ≥ 5000 | 52.8 | 52.4±40.1 | more potent inhibitory effect | 80.3 | 21.8±17.4 | dose-dependent inhibitory effects at all points of time | – | – | – | – |
| CCCCC(=O)O[C@]1(C(=O)CO)[C@@H](C)C[C@H]2[C@@H]3CCC4=CC(=O)C=C[C@]4(C)[C@@]3(F)[C@@H](O)C[C@@]21C [Betamethasone valerate, reference compound] | – | – | – | – | – | – | – | – | induced body weight loss | fairly potent efficacy but its effect had been attenuated by 24 and 48 hours after application | 81.1 | 21.0±19.9 |
